Laboratory results published in patent US11572399B2, “Long-acting GIP peptide analogues” (University of Copenhagen, priority 2017, dated 2023).
Where two headings read alike, the source gives them in different places. Peptide text beside a SMILES is read from it. * marks the point of attachment. C16 diacid = O=C(O)CCCCCCCCCCCCCCC(=O)*; Palmitoyl = CCCCCCCCCCCCCCCC(=O)*

How the values were obtained:
human GIP receptor [1] = biological target: T1, human GIP receptor (Homo sapiens, UniProt P48546); assay: cAMP accumulation assay, agonism (ligand alone); format: cell-based; settings: Table 1; for Emax: COS-7, intrinsic cAMP activity
T1 construct: host or cells: COS-7, transient transfection (calcium phosphate), cDNA in pCMV-Script
T1 sequence (P48546 22-466): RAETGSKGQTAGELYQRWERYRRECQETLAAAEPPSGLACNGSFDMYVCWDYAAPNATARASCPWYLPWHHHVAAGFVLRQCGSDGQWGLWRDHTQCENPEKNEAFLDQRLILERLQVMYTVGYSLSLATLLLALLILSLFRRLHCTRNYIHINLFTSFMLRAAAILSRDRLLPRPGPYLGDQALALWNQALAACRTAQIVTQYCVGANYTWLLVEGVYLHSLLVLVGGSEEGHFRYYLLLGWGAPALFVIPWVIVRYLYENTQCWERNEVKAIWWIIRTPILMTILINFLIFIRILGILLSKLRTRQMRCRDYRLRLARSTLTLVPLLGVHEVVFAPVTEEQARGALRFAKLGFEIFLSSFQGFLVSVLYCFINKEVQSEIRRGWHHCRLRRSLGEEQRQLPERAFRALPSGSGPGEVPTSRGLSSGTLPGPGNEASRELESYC

human GIP receptor [2] = biological target: T1, human GIP receptor; assay: cAMP accumulation assay, antagonism of a GIP-mediated cAMP response (50-80% of max); format: cell-based; settings: for cAMP - antagonisme fold (paired): fold vs GIP(3-30)NH2; for Fold change of IC50 versus GIP(5-30)NH2: fold change of IC50 from GIP(5-30)NH2
Protocol: The day after, the cells were washed twice with Hepes buffered saline (HBS) buffer and incubated with HBS and 1 mM 3-isobutyl-1-methylxanthine (IBMX) for 30 min at 37° C. […] The HitHunter™ cAMP XS assay (DiscoveRx) was carried out according to the manufacturer's instructions.

human GIP receptor [3] = biological target: T1, human GIP receptor; assay: 125I-human GIP competition binding assay, in the presence and absence of 2% HSA; settings: for Fold change HSA (2%)/Casein (0.1%): IC50 (plus HSA)/IC50 (minus HSA); for Binding fold (paired): fold decrease in affinity compared to GIP(3-30)NH2; for Fold change in affinity, IC50 (plus HSA)/IC50 (minus HSA): presence vs absence of 2% HSA, proxy for albumin binding; for Binding (+/−HSA) Fold: fold change +HSA/−HSA;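 as to all read-outs here: nonspecific binding taken as radioligand bound to untransfected cells, IC50 obtained from nonlinear regression fits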
[4] = Table 3b, initial data, read-out: Binding IC50
[5] = binding in 0.1% casein (absence of HSA), log value, read-out: logIC50 0.1% casein (converted)
[6] = transiently transfected COS-7 cells, Table 1 and text, read-out: cAMP antagonism nM (IC50, antagonistic potency)
[7] = heterologous competition binding, transiently transfected COS-7 cells expressing the human GIP receptor, read-out: Binding

| SMILES | Emax (human GIP receptor [1]; COS-7 cells) [%] | cAMP - antagonisme fold (paired) (human GIP receptor [2]; Table 3b) [fold] | Fold change HSA (2%)/Casein (0.1%) (human GIP receptor [3]) | IC50 (human GIP receptor [3]; [4]) [nM] | IC50 (human GIP receptor [3]; [5]) [nM] | Binding fold (paired) (human GIP receptor [3]; Table 3b) [fold] | Fold change in affinity, IC50 (plus HSA)/IC50 (minus HSA) (human GIP receptor [3]) [fold] | Fold change of IC50 versus GIP(5-30)NH2 (human GIP receptor [2]) | IC50 (human GIP receptor [2]; [6]) [nM] | Binding (+/−HSA) Fold (human GIP receptor [3]) | IC50 (human GIP receptor [3]; [7]) [nM] | also measured |
| --- | --- | --- | --- | --- | --- | --- | --- | --- | --- | --- | --- | --- |
| CCCCCCCCCCCCCCCCCC(=O)NCCCC[C@H](NC(=O)[C@H](CC(=O)O)NC(=O)[C@H](CCSC)NC(=O)[C@H](C)NC(=O)[C@@H](NC(=O)[C@H](CO)NC(=O)[C@H](Cc1ccc(O)cc1)NC(=O)[C@H](CC(=O)O)NC(=O)[C@H](CO)NC(=O)[C@@H](NC(=O)[C@H](Cc1ccccc1)NC(=O)[C@@H](NC(=O)CNC(=O)[C@@H](N)CCC(=O)O)[C@@H](C)O)[C@@H](C)CC)[C@@H](C)CC)C(=O)N[C@H](C(=O)N[C@@H](Cc1c[nH]cn1)C(=O)N[C@@H](CCC(N)=O)C(=O)N[C@@H](CCC(N)=O)C(=O)N[C@@H](CC(=O)O)C(=O)N[C@@H](Cc1ccccc1)C(=O)N[C@H](C(=O)N[C@@H](CC(N)=O)C(=O)N[C@@H](Cc1c[nH]c2ccccc12)C(=O)N[C@@H](CC(C)C)C(=O)N[C@@H](CC(C)C)C(=O)N[C@@H](C)C(=O)N[C@@H](CCC(N)=O)C(=O)N[C@@H](CCCCN)C(N)=O)C(C)C)[C@@H](C)CC [AT114, [hGIP(3-30)NH2—C18/16]] | 39 | 2.3 | 11.2 | 102 | 501 | 6.7 | 7.7 |  |  |  |  | IC50 (human GIP receptor [2]; Table 3b, initial data, read-out: cAMP - antagonisme IC50): 29.2 nM; IC50 (human GIP receptor [2]; given as log IC50 (negative sign), transiently transfected COS-7 cells, Table 1, read-out: cAMP antagonism log (converted)): 63.1 nM |
| CC[C@H](C)[C@H](NC(=O)[C@H](CO)NC(=O)[C@H](Cc1ccc(O)cc1)NC(=O)[C@H](CC(=O)O)NC(=O)[C@H](CO)NC(=O)[C@@H](NC(=O)[C@H](Cc1ccccc1)NC(=O)[C@@H](N)[C@@H](C)O)[C@@H](C)CC)C(=O)N[C@@H](C)C(=O)N[C@@H](CCSC)C(=O)N[C@@H](CC(=O)O)C(=O)N[C@@H](CCCCN)C(=O)N[C@H](C(=O)N[C@@H](Cc1c[nH]cn1)C(=O)N[C@@H](CCC(N)=O)C(=O)N[C@@H](CCC(N)=O)C(=O)N[C@@H](CC(=O)O)C(=O)N[C@@H](Cc1ccccc1)C(=O)N[C@H](C(=O)N[C@@H](CC(N)=O)C(=O)N[C@@H](CCCCNC(=O)CCCCCCCCCCCCCCC(=O)O)C(=O)N[C@@H](CC(C)C)C(=O)N[C@@H](CC(C)C)C(=O)N[C@@H](C)C(=O)N[C@@H](CCC(N)=O)C(=O)N[C@@H](CCCCN)C(N)=O)C(C)C)[C@@H](C)CC [AT185, [hGIP(5-30)NH2[W25K]-C16diacid/25]] (H-TFISDYSIAMDKIHQQDFVNK(C16 diacid)LLAQK-NH2; N-terminus assumed) | 18 |  | 4.7 |  |  |  |  | 2.4 | 44 | 5.0 |  | EC50 (human GIP receptor [1]; given as log EC50 (negative sign), read-out: cAMP agonism EC50 (log) (converted)): 100 nM; IC50 (human GIP receptor [2]; antagonism of GIP-mediated cAMP response, COS-7 cells, read-out: cAMP accumulation IC50): 66.1 nM; Ki (human GIP receptor [3]; presence of 2% HSA): 337 nM |
| CC[C@H](C)[C@H](NC(=O)[C@H](CO)NC(=O)[C@H](Cc1ccc(O)cc1)NC(=O)[C@H](CC(=O)O)NC(=O)[C@H](CO)NC(=O)[C@@H](NC(=O)[C@H](Cc1ccccc1)NC(=O)[C@@H](N)[C@@H](C)O)[C@@H](C)CC)C(=O)N[C@@H](C)C(=O)N[C@@H](CCSC)C(=O)N[C@@H](CC(=O)O)C(=O)N[C@@H](CCCCN)C(=O)N[C@H](C(=O)N[C@@H](Cc1c[nH]cn1)C(=O)N[C@@H](CCC(N)=O)C(=O)N[C@@H](CCC(N)=O)C(=O)N[C@@H](CCCCNC(=O)CCCCCCCCCCCCCCC(=O)O)C(=O)N[C@@H](Cc1ccccc1)C(=O)N[C@H](C(=O)N[C@@H](CC(N)=O)C(=O)N[C@@H](Cc1c[nH]c2ccccc12)C(=O)N[C@@H](CC(C)C)C(=O)N[C@@H](CC(C)C)C(=O)N[C@@H](C)C(=O)N[C@@H](CCC(N)=O)C(=O)N[C@@H](CCCCN)C(N)=O)C(C)C)[C@@H](C)CC [AT181, [hGIP(5-30)NH2[D21K]-C16diacid/21]] (H-TFISDYSIAMDKIHQQK(C16 diacid)FVNWLLAQK-NH2; N-terminus assumed) | 9 |  | 5.2 |  |  |  | 5.2 | 0.5 | 16 | 3.6 | 48 | EC50 (human GIP receptor [1]; COS-7 cells, read-out: cAMP agonism nM (EC50)): 2 nM; Ability to antagonize the GIP-mediated cAMP response (in words) (human GIP receptor [2]): highest antagonistic potencies |
| CC[C@H](C)[C@H](NC(=O)[C@H](CO)NC(=O)[C@H](Cc1ccc(O)cc1)NC(=O)[C@H](CC(=O)O)NC(=O)[C@H](CO)NC(=O)[C@@H](NC(=O)[C@H](CCCCNC(=O)CCCCCCCCCCCCCCC(=O)O)NC(=O)[C@@H](N)[C@@H](C)O)[C@@H](C)CC)C(=O)N[C@@H](C)C(=O)N[C@@H](CCSC)C(=O)N[C@@H](CC(=O)O)C(=O)N[C@@H](CCCCN)C(=O)N[C@H](C(=O)N[C@@H](Cc1c[nH]cn1)C(=O)N[C@@H](CCC(N)=O)C(=O)N[C@@H](CCC(N)=O)C(=O)N[C@@H](CC(=O)O)C(=O)N[C@@H](Cc1ccccc1)C(=O)N[C@H](C(=O)N[C@@H](CC(N)=O)C(=O)N[C@@H](Cc1c[nH]c2ccccc12)C(=O)N[C@@H](CC(C)C)C(=O)N[C@@H](CC(C)C)C(=O)N[C@@H](C)C(=O)N[C@@H](CCC(N)=O)C(=O)N[C@@H](CCCCN)C(N)=O)C(C)C)[C@@H](C)CC [AT168, [hGIP(5-30)NH2[F6K]-C16diacid/6]] | 0 |  | 2.0 |  | 50.1 |  |  | 5.3 |  | 2.3 | 48 | IC50 (human GIP receptor [3]; binding in presence of 2% HSA, read-out: logIC50 2% HSA (converted)): 100 nM |
| CCCCCCCCCCCC(=O)NCCCC[C@H](NC(=O)[C@H](CC(=O)O)NC(=O)[C@H](CCSC)NC(=O)[C@H](C)NC(=O)[C@@H](NC(=O)[C@H](CO)NC(=O)[C@H](Cc1ccc(O)cc1)NC(=O)[C@H](CC(=O)O)NC(=O)[C@H](CO)NC(=O)[C@@H](NC(=O)[C@H](Cc1ccccc1)NC(=O)[C@@H](N)[C@@H](C)O)[C@@H](C)CC)[C@@H](C)CC)C(=O)N[C@H](C(=O)N[C@@H](Cc1c[nH]cn1)C(=O)N[C@@H](CCC(N)=O)C(=O)N[C@@H](CCC(N)=O)C(=O)N[C@@H](CC(=O)O)C(=O)N[C@@H](Cc1ccccc1)C(=O)N[C@H](C(=O)N[C@@H](CC(N)=O)C(=O)N[C@@H](Cc1c[nH]c2ccccc12)C(=O)N[C@@H](CC(C)C)C(=O)N[C@@H](CC(C)C)C(=O)N[C@@H](C)C(=O)N[C@@H](CCC(N)=O)C(=O)N[C@@H](CCCCN)C(N)=O)C(C)C)[C@@H](C)CC [AT119, [hGIP(5-30)NH2—C12/16]] | 0 |  | 7.2 |  | 398 |  |  |  | 26 |  |  |  |
| CCCCCCCCCCCCCCCC(=O)NCCCC[C@H](NC(=O)[C@@H](NC(=O)[C@H](CCCCN)NC(=O)[C@H](CC(=O)O)NC(=O)[C@H](CC(C)C)NC(=O)[C@H](C)NC(=O)[C@@H](NC(=O)[C@H](CO)NC(=O)[C@H](Cc1ccc(O)cc1)NC(=O)[C@H](CC(=O)O)NC(=O)[C@H](CO)NC(=O)[C@@H](NC(=O)[C@H](Cc1ccccc1)NC(=O)[C@@H](NC(=O)CNC(=O)[C@@H](N)CCC(=O)O)[C@@H](C)O)[C@@H](C)CC)[C@@H](C)CC)[C@@H](C)CC)C(=O)N[C@@H](CCC(N)=O)C(=O)N[C@@H](CCC(N)=O)C(=O)N[C@@H](CC(=O)O)C(=O)N[C@@H](Cc1ccccc1)C(=O)N[C@H](C(=O)N[C@@H](CC(N)=O)C(=O)N[C@@H](Cc1c[nH]c2ccccc12)C(=O)N[C@@H](CC(C)C)C(=O)N[C@@H](CC(C)C)C(=O)N[C@@H](C)C(=O)N[C@@H](CCC(N)=O)C(=O)N[C@@H](CCCCN)C(N)=O)C(C)C [AT143, [hGIP(3-30)NH2[M14L; H18K]-C16/18]] (H-EGTFISDYSIALDKIK(Palmitoyl)QQDFVNWLLAQK-NH2; N-terminus assumed) | 40 | 0.3 |  | 86.1 |  | 11 | 1.2 |  | 15 |  | 80 | IC50 (human GIP receptor [3]; 0.1% casein, no HSA, Table 3b, read-out: Binding logIC50 0.1% casein (converted)): 86.1 nM; IC50 (human GIP receptor [3]; 2% HSA, Table 3b, read-out: Binding logIC50 2% HSA (converted)): 105 nM |
